# Results from PMC10934261, “Designing Potent Anti-Cancer Agents: Synthesis and Molecular Docking Studies of Thieno[2,3-d][1,2,4]triazolo[1,5-a]pyrimidine Derivatives” (Molecules, 2024).
# Columns and labels:
# [1] = test system: human prostate PC-3 cancer cell line; assay: In vitro cytotoxic screening (MTT assay), PC-3; assay type: cell-based; conditions: average ± standard deviation
# Description: (§1) Using human breast MCF-7, colorectal HCT-116, and prostate PC-3 cancer cell lines, preliminary antiproliferative effectiveness of cyclopenta[4,5]thieno[2,3-d][1,2,4]triazolo[1,5-a]pyrimidin-9(6H)-ones 4–16 was established in vitro through MTT assay at different concentrations (100, 50, 25 and 12.5 μM) (Figure 2).
# (§2) The cell lines were obtained from Karolinska Center, Department of Oncology and Pathology, Karolinska Institute and Hospital, Stockholm, Sweden. as follows: human breast MCF-7, colorectal HCT-116 and prostate PC-3 cancer cell lines and human skin normal BJ-1 cell line. Exponentially, cells were cultured at a concentration of 10^4 cells/well for 24 h, afterwards fresh medium containing different concentrations of the tested samples was added. Serial two-fold dilution of the tested samples were added using a multichannel pipette. Moreover, all cells were cultivated at 37 °C, 5% CO2 and 95% humidity. Also, incubation of control cells occurred at 37 °C. However, after incubation for 24 h different concentrations of samples (100, 50, 25 and 12.5 µM) were added and the incubation was continued for 48 h, then crystal violet solution 1% was added to each well for 0.5 h to examine the presence of viable cells. After rinsing the wells using water until stain free, 30% glacial acetic acid was added to all wells with shaking the plates on a Microplate reader (TECAN, Inc.) to measure the absorbance at a wavelength of 490 nm. The cytotoxicity was estimated by IC50 in μM, which is the concentration that inhibits 50% of growth of cancer cells. […]
# (§3) 1.1. In vitro cytotoxic screening
# (§4) The cell lines were obtained from Karolinska Center, Department of Oncology and Pathology, Karolinska Institute and Hospital, Stockholm, Sweden. as follows: human breast MCF-7, colorectal HCT-116 and prostate PC-3 cancer cell lines and human skin normal BJ-1 cell line. Exponentially, cells were placed in 10^4 cells/ well for 24 h, and then add fresh medium which containing different concentration of the tested sample. Serial two-fold dilution of the tested sample were added using a multichannel pipette. Moreover, all cells were cultivated at 37 °C, 5% CO2 and 95% humidity. Also, incubation of control cells occurred at 37 °C. However, after incubation for 24 h different concentrations of sample (100, 50, 25 and 12.5 µM) were added and continued the incubation for 48 h, then, add the crystal violet solution 1% to each well for 0.5 h to examine viable cells. Rinse the wells using water until no stain. After that, add 30% glacial acetic acid to all wells with shaking plates on Microplate reader (TECAN, Inc.) to measure the absorbance, using a test wavelength of 490 nm. Besides, compare the treated samples with the control cell. The cytotoxicity was estimated by IC50 in (μ M), the concentration that inhibits 50% of growth of cancer cell. […]
# (§5) The molecular docking simulation of the promising in vitro screened cyclopenta[4,5]thieno[2,3-d][1,2,4]triazolo[1,5-a]pyrimidin-9(6H)-ones 10b and 10e against EGFR and PI3K was done using the Molecular Operating Environment software (MOE-Dock) version 2014.0901. The co-crystallized structures of EGFR and PI3K kinases complexed with their native ligands, erlotinib and quinolone LXX, were downloaded from the protein data bank (PDB codes: 1M17 and 3L54, respectively). All minimizations were performed using MOE until an RMSD gradient of 0.05 kcal∙mol−1Å−1 with MMFF94x force field and the partial charges were automatically calculated. Preparation of the enzyme structures was done for molecular docking using Protonate 3D protocol with the default options in MOE. London dG scoring function and Triangle Matcher placement method were used in the docking protocol. Initially, the original ligands were re-docked into the active binding site of EGFR and PI3K kinases to assess the root-mean-square deviation values. Then, the docking studies of the newly targeted […]
# [2] = test system: human colorectal HCT-116 cancer cell line; assay: In vitro cytotoxic screening (MTT assay), HCT-116; assay type: cell-based; conditions: average ± standard deviation
# Description: as §1, §2, §3, §4, §5
# [3] = test system: human breast MCF-7 cancer cell line; assay: In vitro cytotoxic screening (MTT assay), MCF-7; assay type: cell-based; conditions: for Percentage cytotoxicity on MCF-7: average ± standard deviation; for IC50: Homo sapiens, MCF7, MCF-7, 48 h incubation, mean of three values, read-out: IC50 (Mean ± SD) MCF-7
# Description: as §1, §2, §3, §4, §5
SMILES,Percentage cytotoxicity on PC-3 ([1]; 12.5 µM),Percentage cytotoxicity on PC-3 ([1]; 25 µM),Percentage cytotoxicity on PC-3 ([1]; 50 µM),Percentage cytotoxicity on PC-3 ([1]; 100 µM),Percentage cytotoxicity on HCT-116 ([2]; 12.5 µM),Percentage cytotoxicity on HCT-116 ([2]; 25 µM),Percentage cytotoxicity on HCT-116 ([2]; 50 µM),Percentage cytotoxicity on HCT-116 ([2]; 100 µM),melting point,Percentage cytotoxicity on MCF-7 ([3]; 12.5 µM),Percentage cytotoxicity on MCF-7 ([3]; 25 µM),Percentage cytotoxicity on MCF-7 ([3]; 50 µM),Percentage cytotoxicity on MCF-7 ([3]; 100 µM),IC50 [3]
"O=c1c2c3c(sc2nc2[nH]cnn12)CCC3 [Compound 4, 7,8-Dihydro-3H-cyclopenta[4,5]thieno[2,3-d][1,2,4]triazolo[1,5-a]pyrimidin-9(6H)-one]",0.0±0.005%,0.0±0.005%,0.0±0.005%,11.3±3.7%,0.0±0.005%,0.0±0.005%,0.0±0.005%,9.1±2.0%,> 300 °C,31.5±5.7%,23.6±3.2%,35.5±4.4%,34.8±4.1%,–
"O=c1c2c3c(sc2nc2[nH]c(=S)[nH]n12)CCC3 [Compound 9, 2-Thioxo-2,3,7,8-tetrahydro-1H-cyclopenta[4,5]thieno[2,3-d][1,2,4]triazolo[1,5-a]pyrimidin-9(6H)-one]",3.7±1.3%,6.3±0.9%,7.8±1.3%,19.3±3.5%,0.0±0.005%,0.0±0.005%,0.0±0.005%,0.0±0.005%,> 300 °C,0.0±0.005%,28.4±2.6%,32.7±2.4%,62.5±7.6%,71.8 ± 1.05 µM
"N#CCc1nn2c(=O)c3c4c(sc3nc2[nH]1)CCC4 [Compound 7, 2-(9-Oxo-6,7,8,9-tetrahydro-3H-cyclopenta[4,5]thieno[2,3-d][1,2,4]triazolo[1,5-a]pyrimidin-2-yl)acetonitrile]",–,–,–,–,–,–,–,–,> 300 °C,–,–,–,–,–
"CC(=O)C/C(C)=N/n1c(N[C@@H]2O[C@H](COC(C)=O)[C@@H](OC(C)=O)[C@H](OC(C)=O)[C@H]2OC(C)=O)nc2sc3c(c2c1=O)CCC3 [Compound 15, (E)-3-((4-Oxopentan-2-ylidene)amino)-2-((2,3,4,6-tetra-O-acetyl-β-D-glocopyranosyl)amino)-6,7-dihydro-3H-cyclopenta[4,5]thieno[2,3-d]pyrimidin-4(5H)-one]",0.0±0.005%,0.0±0.005%,0.0±0.005%,5.6±1.2%,0.0±0.005%,0.0±0.005%,0.0±0.005%,3.0±1.2%,> 300 °C,0.0±0.005%,0.0±0.005%,0.0±0.005%,19.7±3.7%,–
"COc1ccc(-c2nn3c(=O)c4c5c(sc4nc3[nH]2)CCC5)cc1 [Compound 10d, 2-(4-Methoxyphenyl)-7,8-dihydro-3H-cyclopenta[4,5]thieno[2,3-d][1,2,4]triazolo[1,5-a]pyrimidin-9(6H)-one]",9.1±6.3%,21.6±0.06%,26.9±1.2%,36.4±3.1%,0.0±0.005%,0.0±0.005%,0.0±0.005%,14.3±4.3%,180 to 182 °C,12.7±2.1%,35.1±5.9%,47.3±8.5%,53.1±6.1%,–
"O=c1c2c3c(sc2nc2[nH]c(-c4ccc(Cl)cc4)nn12)CCC3 [Compound 10a, 2-(4-Chlorophenyl)-7,8-dihydro-3H-cyclopenta[4,5]thieno[2,3-d][1,2,4]triazolo[1,5-a]pyrimidin-9(6H)-one]",20.7±3.9%,30.7±0.5%,35.9±0.8%,40.9±4.1%,14.4±2.3%,17.8±1.7%,17.9±1.7%,20.3±2.1%,220 to 222 °C,16.5±9.5%,33.3±0.8%,44.4±11.2%,61.4±4.7%,60.6 ± 0.45 µM
"CC(=O)OC[C@@H](OC(C)=O)[C@H](OC(C)=O)[C@H](OC(C)=O)[C@@H](OC(C)=O)c1nc2nc3sc4c(c3c(=O)n2[nH]1)CCC4 [Compound 12b, (1S,2R,3S,4R)-1-(9-oxo-1,7,8,9-tetrahydro-6H-cyclopenta[4,5]thieno[2,3-d][1,2,4]triazolo[1,5-a]pyrimidin-2-yl)pentane-1,2,3,4,5-pentayl pentaacetate]",1.5±2.3%,4.8±1.1%,7.3±0.9%,20.6±3.3%,0.0±0.005%,0.0±0.005%,0.0±0.005%,13.3±3.1%,> 300 °C,0.0±0.005%,5.5±0.6%,20.8±2.1%,30.1±7.5%,–
"CC(=O)OC[C@@H](OC(C)=O)[C@@H](OC(C)=O)[C@H](OC(C)=O)[C@@H](OC(C)=O)c1nc2nc3sc4c(c3c(=O)n2[nH]1)CCC4 [Compound 12a, (1S,2R,3R,4R)-1-(9-oxo-1,7,8,9-tetrahydro-6H-cyclopenta[4,5]thieno[2,3-d][1,2,4]triazolo[1,5-a]pyrimidin-2-yl)pentane-1,2,3,4,5-pentayl pentaacetate]",–,–,–,–,–,–,–,–,> 300 °C,–,–,–,–,–
